# From US6423335B1, “Modified milk powder composition” (priority 1999, dated 2002)
# Tests used:
# Type in all cases: in vivo, rats (the Donryu strain)
# [1] = Low protein diet feeding in rats: body weight, weight of tissues, BUN, blood profile (Example 1); conditions: for efficiency of protein utilization of feed / feed efficiency: versus 3% protein diet group; for level of platelets: versus suppression in 3% protein diet group
# Description: (§1) Four-week-age male rats (the Donryu strain) were fed 20% protein diet for one week. Then, glutamine (Gln) and glutamic acid (Glu) each were mixed into 3% protein diet at the level of 5% (w/w) and offered to the rats for three weeks. Also, a 20% protein diet group and a 3% protein diet group were set as controls. Upon each rat, body weight, weight of tissues, blood urea nitrogen (BUN), the level of leukocytes, the level of erythrocytes, hematocrit, the level of platelets, and production of TNF-α by peritoneal macrophage as an index of immune response were determined.
# [2] = tested on: peritoneal macrophage; assay: Production of TNF-α by peritoneal macrophage as an index of immune response (Example 1); conditions: 5% (w/w) in 3% protein diet, three weeks; versus suppression in 3% protein diet group
# Description: as §1
# [3] = Commercial modified milk powder feeding in rats: body weight, weight of tissues, BUN, blood profile (Example 2); conditions: two weeks
# Description: (§2) Then, using commercial modified milk powder (milk serum protein, soybean oil, lactose, and various vitamins and minerals were mixed; level of proteins was from 12 to 13% by weight) as a control, glutamine ([…] became 2, 5, 8, or 40%), and each diet was offered (free ingestion) for two weeks. Upon each rat, body weight, weight of tissues, blood urea nitrogen (BUN), the level of leukocytes, the level of erythrocytes, hematocrit, the level of platelets, and production of TNF-α by peritoneal macrophage as an index of immune response were measured.
# [4] = tested on: peritoneal macrophage; assay: Production of TNF-α by peritoneal macrophage as an index of immune response (Example 2); conditions: two weeks
# Description: as §2
# [5] = 5% (w/w) in 3% protein diet, three weeks
# [6] = male rats, 5% (w/w) in 3% protein diet, three weeks
# [7] = 0.3% Gln in modified milk powder
# [8] = 0.65% Gln in modified milk powder
# [9] = 1.5% Gln group, modified milk powder
structure (smiles),measurement,setting,value
"N[C@@H](CCC(=O)O)C(=O)O [Glu, glutamic acid]",efficiency of protein utilization of feed,[1]; [5],this beneficial phenomenon was not observed
same,feed efficiency,[1]; [5],this beneficial phenomenon was not observed
same,level of platelets,[1]; [5],no improvement
same,Blood urea nitrogen,[1]; [6],18.8 ± 2.9 mg/dL
same,Body weight at the end of experiment,[1]; [6],180.5 ± 3.8
same,production of TNF-α by peritoneal macrophage,[2],no improvement
"NC(=O)CC[C@H](N)C(=O)O [Gln, glutamine]",remarkable decrease of body weight on low protein diet,"[1]; 5% (w/w) in 3% protein diet, three weeks, compared with 3% protein diet group",this phenomenon was observed
same,efficiency of protein utilization of feed,[1]; [5],higher than those in the 3% protein diet group
same,feed efficiency,[1]; [5],higher than those in the 3% protein diet group
same,level of platelets,[1]; [5],improvement was observed
same,Body weight at the end of experiment,[1]; [6],200.2 ± 3.1
same,Blood urea nitrogen,"[1]; rat, in vivo",18.9 ± 2.1 mg/dL
same,production of TNF-α by peritoneal macrophage,[2],improvement was observed
same,Blood urea nitrogen,[3]; [7],20.5 mg/dL
same,Body weight at the end of experiment,[3]; [7],233.1
same,body weight and any of the other indexes versus control group (Gln 0%),[3]; [7],no difference
same,Blood urea nitrogen,[3]; [8],22.1 mg/dL
same,Body weight at the end of experiment,[3]; [8],238.2
same,body weight versus control group,[3]; [8],a slight difference
same,Blood urea nitrogen,[3]; 1% Gln in modified milk powder,23.4 mg/dL
same,Body weight at the end of experiment,[3]; 1% Gln in modified milk powder,241.7
same,body weight as compared with the control group,[3]; [9],there were observed differences
same,level of platelets as compared with the control group,[3]; [9],there were observed differences
same,Blood urea nitrogen,[3]; 5% Gln in modified milk powder,24.1 mg/dL
same,Body weight at the end of experiment,[3]; 5% Gln in modified milk powder,245.8
same,production of TNF-α by peritoneal macrophage versus control group,[4]; [8],higher than that at the control group
same,production of TNF-α by peritoneal macrophage as compared with the control group,[4]; [9],there were observed differences
